Test results from patent US20220315572A1, “SUBSTITUTED CYANOPYRROLIDINES WITH ACTIVITY AS USP30 INHIBITORS” (MISSION THERAPEUTICS LIMITED, priority 2019, published 2022).

Assays:
[1] = test system: HCT116 human colorectal carcinoma cells; assay: In vitro cytotoxicity (Cell Tox), alamarBlue; assay type: cell-based
Source text: There is also a need for compounds that have a favourable safety profile, which may be measured by a variety of standard in vitro and in vivo methods. A cell toxicity counter-screen may be used to assay the anti-proliferative/cytotoxic effect in a particular cell line (e.g. HCT116) by fluorometric detection of rezasurin (alamarBlue) to resofurin in response to mitochondrial activity.
In Vitro Cytotoxicity (Cell Tox): Measured in HCT116 human colorectal carcinoma cells using alamarBlue as the assay endpoint. Compound cytotoxicity was measured over a period of 96-hour continual compound exposure.

Cathepsins B, K, L, S, V = assay: Cathepsin IC50, range over B, K, L, S, V; assay type: biochemical
Cathepsin K = target: T1, Cathepsin K (Homo sapiens, UniProt P43235); assay: Cathepsin IC50, cathepsin K; assay type: biochemical
T1 sequence (P43235 115-329): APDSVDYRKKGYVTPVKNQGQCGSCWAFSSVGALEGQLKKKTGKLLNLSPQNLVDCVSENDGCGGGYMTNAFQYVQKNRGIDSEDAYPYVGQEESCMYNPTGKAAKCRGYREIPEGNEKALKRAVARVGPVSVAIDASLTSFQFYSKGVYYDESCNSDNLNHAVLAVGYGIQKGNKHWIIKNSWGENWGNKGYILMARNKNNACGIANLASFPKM

Cathepsin V = Cathepsin V (Homo sapiens, UniProt O60911); assay: Cathepsin IC50, cathepsin V; assay type: biochemical
[2] = test system: USP2, USP10, USP16, USP21, USP22, USP25, USP28, USP35, USP46; assay: DUB biochemical IC50 assays, nine DUBs; details: range over the nine DUBs
Cathepsin S = Cathepsin S (Homo sapiens, UniProt P25774); assay: Cathepsin IC50, cathepsin S; assay type: biochemical
UCHL1 = target: T2, UCHL1 (Homo sapiens, UniProt P09936); assay: DUB biochemical IC50 assay, UCHL1
T2 sequence (P09936 1-223): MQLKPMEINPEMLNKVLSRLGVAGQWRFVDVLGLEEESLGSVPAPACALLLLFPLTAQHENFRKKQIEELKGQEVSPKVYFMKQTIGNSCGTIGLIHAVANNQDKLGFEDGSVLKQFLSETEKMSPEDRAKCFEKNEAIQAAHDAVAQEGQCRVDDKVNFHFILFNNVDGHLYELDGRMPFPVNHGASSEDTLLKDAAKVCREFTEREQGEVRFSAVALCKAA

USP30 = target: T3, USP30 (Homo sapiens, UniProt Q70CQ3); assay: USP30 biochemical IC50 assay (fluorescence polarisation); details: USP30 biochemical IC50 assay, exemplary compounds; read-out: IC50
T3 construct: purchased Boston Biochem E582
T3 sequence (Q70CQ3 57-517 limits assumed): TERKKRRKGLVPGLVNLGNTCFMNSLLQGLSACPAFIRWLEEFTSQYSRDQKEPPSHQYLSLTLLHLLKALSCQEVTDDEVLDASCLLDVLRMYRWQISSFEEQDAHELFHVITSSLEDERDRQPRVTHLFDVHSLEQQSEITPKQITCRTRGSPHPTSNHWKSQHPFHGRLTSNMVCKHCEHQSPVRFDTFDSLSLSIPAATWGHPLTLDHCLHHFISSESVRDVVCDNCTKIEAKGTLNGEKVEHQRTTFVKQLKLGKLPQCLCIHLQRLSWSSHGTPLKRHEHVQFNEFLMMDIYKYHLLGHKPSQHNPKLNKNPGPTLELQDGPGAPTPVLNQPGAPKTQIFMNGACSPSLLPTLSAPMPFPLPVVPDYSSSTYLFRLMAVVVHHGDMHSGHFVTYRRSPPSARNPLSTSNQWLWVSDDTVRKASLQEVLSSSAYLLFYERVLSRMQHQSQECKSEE
Description: Dilution plates were prepared at 21 times the final concentration (2100 μM for a final concentration of 100 μM) in 50% DMSO in a 96-well polypropylene V-bottom plate (Greiner #651201). A typical 8-point dilution series would be 100, 30, 10, 3, 1, 0.3, 0.1, 0.03 μM final. Reactions were performed in duplicate in black 384 well plates (small volume, Greiner 784076) in a final reaction volume of 21 μl. Either […] of 50% DMSO or diluted compound was added to the plate. USP30 (Boston Biochem #E582) was diluted in reaction buffer (40 mM Tris, pH 7.5, 0.005% Tween 20, 0.5 mg/ml BSA, 5 mM beta-mercaptoethanol) to achieve a final assay concentration of 4 nM, and 10 μl of diluted USP30 was added to the compound. Enzyme and compound were incubated for 30 min at room temp. Reactions were initiated by the addition of 50 nM of TAMRA labelled peptide linked to ubiquitin via an iso-peptide bond as fluorescence polarisation substrate. Reactions were read immediately after addition of substrate and following a 2-hour incubation at room temperature. Readings were performed on a Pherastar Plus (BMG Labtech). λ Excitation 540 nm; λ Emission 590 nm.

Cathepsin B = Cathepsin B (Homo sapiens, UniProt P07858); assay: Cathepsin IC50, cathepsin B; assay type: biochemical
Endogenous USP30 = target: T4, Endogenous USP30 (Homo sapiens, UniProt Q70CQ3); assay: USP30 endogenous cellular target engagement western blot assay (Cell TE WB); assay type: cell-based; details: Hela cells stably overexpressing YFP-Parkin, 1 hour
T4 construct: USP30 endogenous cellular target engagement western blot (WB) assay; endogenous in cells; host or cells: HeLa stably overexpressing YFP-Parkin
T4 sequence (Q70CQ3 1-517): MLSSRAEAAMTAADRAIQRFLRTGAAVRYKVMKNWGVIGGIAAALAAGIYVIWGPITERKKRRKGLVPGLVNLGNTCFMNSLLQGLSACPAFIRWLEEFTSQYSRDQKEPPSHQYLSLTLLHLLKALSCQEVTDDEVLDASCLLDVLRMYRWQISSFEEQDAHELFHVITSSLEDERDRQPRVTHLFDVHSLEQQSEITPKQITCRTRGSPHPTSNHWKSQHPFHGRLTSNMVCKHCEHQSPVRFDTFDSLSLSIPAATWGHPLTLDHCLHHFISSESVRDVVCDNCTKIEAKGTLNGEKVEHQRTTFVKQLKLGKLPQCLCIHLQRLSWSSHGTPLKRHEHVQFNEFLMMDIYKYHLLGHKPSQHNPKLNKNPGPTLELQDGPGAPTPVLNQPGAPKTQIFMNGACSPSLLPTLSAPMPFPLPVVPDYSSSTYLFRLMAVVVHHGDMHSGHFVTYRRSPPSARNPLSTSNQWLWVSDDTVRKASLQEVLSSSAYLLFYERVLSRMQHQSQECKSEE
Description: Hela cells stably overexpressing YFP-Parkin were seeded into 6 well dishes. Once adhered, cells were treated with appropriate concentrations of test compounds or vehicle control for 1 hour at 37° C., 5% CO2. Whole cell lysates were prepared by scraping the cells into cold PBS, centrifuging and lysing in lysis buffer (50 mM Tris-base, pH 7.5, 50 mM NaCl, 1% NP-40/Igepal CA-630, 2 mM MgCl2, 10% Glycerol, 5 mM beta-mercaptoethanol, cOmplete mini tablets EDTA free (Roche), PhosStop tablets (Roche)) for 10 mins. The equivalent of 20 μg of protein from the cleared cell lysate was incubated with a final conc of 2.5 μM HA-Ahx-Ahx-Ub-VME probe at room temperature. The reaction was stopped by addition of 5×SDS sample loading buffer and proteins separated by SDS PAGE and western blotting. USP30 was detected using an anti-USP30 Sheep S746D antibody (MRC PPU Reagents and Services) and a rabbit anti sheep secondary IgG (H+L) horseradish peroxidase conjugated (Thermo #31480) and visualised using ECL reagent (GE #RPN2109) on a GE LAS4000 imager. Target engagement was measured by quantitation of the bands corresponding to USP30 and USP30 bound to the Ub-VME probe and expression of this proportion compared to vehicle treated control.
Cell TE WB: USP30 endogenous cellular target engagement western blot (WB) assay. Assays the activity of compounds against USP30 in cells using an irreversible activity probe to monitor USP30 activity.

Cathepsin L = Cathepsin L (Homo sapiens, UniProt P07711); assay: Cathepsin IC50, cathepsin L; assay type: biochemical
Sequence of Cathepsin L (P07711 114-333, species assumed): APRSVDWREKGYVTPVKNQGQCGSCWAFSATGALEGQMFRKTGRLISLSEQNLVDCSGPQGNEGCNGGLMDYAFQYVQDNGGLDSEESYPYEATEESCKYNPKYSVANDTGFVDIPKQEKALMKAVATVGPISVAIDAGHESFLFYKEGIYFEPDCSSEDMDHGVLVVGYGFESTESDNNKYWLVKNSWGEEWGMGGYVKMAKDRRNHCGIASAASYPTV

Sequence of Cathepsin S (P25774 115-331, species assumed): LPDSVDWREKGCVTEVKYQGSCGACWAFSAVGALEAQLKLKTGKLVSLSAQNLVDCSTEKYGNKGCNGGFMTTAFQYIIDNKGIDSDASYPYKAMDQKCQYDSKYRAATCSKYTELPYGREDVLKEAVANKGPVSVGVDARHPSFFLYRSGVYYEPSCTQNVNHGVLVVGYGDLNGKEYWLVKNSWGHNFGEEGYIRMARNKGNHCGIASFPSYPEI
Sequence of Cathepsin V (O60911 114-334, species assumed): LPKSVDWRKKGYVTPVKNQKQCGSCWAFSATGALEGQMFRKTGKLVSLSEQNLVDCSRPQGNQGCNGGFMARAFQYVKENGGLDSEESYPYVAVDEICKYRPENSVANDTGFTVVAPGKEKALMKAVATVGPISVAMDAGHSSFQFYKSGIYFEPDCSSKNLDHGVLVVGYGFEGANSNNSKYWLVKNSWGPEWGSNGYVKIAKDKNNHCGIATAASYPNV

- IC50 (Cathepsins B, K, L, S, V; range over the five cathepsins): 44.5 to 226 µM
- IC50 (Cathepsin K): 44.5 µM
- IC50 (Cathepsin V): 223 µM
- IC50 ([2]; Ref. Ex. C excl. USP22, Ref. Ex. D excl. USP2, 46): ≥ 10.6 µM
- IC50 (Cathepsin S): 226 µM
- DUB selectivity preference for USP30 v UCHL1 (UCHL1): 10300
- IC50 (UCHL1): > 300 µM
- IC50 (USP30): 0.029 µM
- IC50 (Cathepsin B): 111 µM
- EC50 (Endogenous USP30): 0.087 µM
- IC50 (Cathepsin L): 54.5 µM
SMILES: COC[C@@H]1C[C@@H](NC(=O)c2nnc(-c3cc(C#N)ccc3OC)o2)CN1C#N [Example 4, 5-(5-Cyano-2-methoxyphenyl)-N-((3R,5S)-1-cyano-5-(methoxymethyl)pyrrolidine-3-yl)-1,3,4-oxadiazole-2-carboxamide]
- Cell Tox EC50/USP30 IC50 [1]: >1000
- EC50 ([1]; Homo sapiens, HCT-116, 96-hour continual compound exposure, alamarBlue): > 30 µM
- Selectivity preference for USP30 v cathepsins (Cathepsins B, K, L, S, V; range over cathepsins B, K, L, S, V): 1500-7800
- DUB selectivity preference for USP30 v 9 DUBs [2]: 365-10300
